We go through four compounds from patent US11584734B2, “Tricyclic compounds as histone methyltransferase inhibitors” (GLOBAL BLOOD THERAPEUTICS, INC., priority 2017, dated 2023).

The assay deals with T1, G9a (Homo sapiens, UniProt Q96KQ7).
T1 sequence (Q96KQ7 1-1210): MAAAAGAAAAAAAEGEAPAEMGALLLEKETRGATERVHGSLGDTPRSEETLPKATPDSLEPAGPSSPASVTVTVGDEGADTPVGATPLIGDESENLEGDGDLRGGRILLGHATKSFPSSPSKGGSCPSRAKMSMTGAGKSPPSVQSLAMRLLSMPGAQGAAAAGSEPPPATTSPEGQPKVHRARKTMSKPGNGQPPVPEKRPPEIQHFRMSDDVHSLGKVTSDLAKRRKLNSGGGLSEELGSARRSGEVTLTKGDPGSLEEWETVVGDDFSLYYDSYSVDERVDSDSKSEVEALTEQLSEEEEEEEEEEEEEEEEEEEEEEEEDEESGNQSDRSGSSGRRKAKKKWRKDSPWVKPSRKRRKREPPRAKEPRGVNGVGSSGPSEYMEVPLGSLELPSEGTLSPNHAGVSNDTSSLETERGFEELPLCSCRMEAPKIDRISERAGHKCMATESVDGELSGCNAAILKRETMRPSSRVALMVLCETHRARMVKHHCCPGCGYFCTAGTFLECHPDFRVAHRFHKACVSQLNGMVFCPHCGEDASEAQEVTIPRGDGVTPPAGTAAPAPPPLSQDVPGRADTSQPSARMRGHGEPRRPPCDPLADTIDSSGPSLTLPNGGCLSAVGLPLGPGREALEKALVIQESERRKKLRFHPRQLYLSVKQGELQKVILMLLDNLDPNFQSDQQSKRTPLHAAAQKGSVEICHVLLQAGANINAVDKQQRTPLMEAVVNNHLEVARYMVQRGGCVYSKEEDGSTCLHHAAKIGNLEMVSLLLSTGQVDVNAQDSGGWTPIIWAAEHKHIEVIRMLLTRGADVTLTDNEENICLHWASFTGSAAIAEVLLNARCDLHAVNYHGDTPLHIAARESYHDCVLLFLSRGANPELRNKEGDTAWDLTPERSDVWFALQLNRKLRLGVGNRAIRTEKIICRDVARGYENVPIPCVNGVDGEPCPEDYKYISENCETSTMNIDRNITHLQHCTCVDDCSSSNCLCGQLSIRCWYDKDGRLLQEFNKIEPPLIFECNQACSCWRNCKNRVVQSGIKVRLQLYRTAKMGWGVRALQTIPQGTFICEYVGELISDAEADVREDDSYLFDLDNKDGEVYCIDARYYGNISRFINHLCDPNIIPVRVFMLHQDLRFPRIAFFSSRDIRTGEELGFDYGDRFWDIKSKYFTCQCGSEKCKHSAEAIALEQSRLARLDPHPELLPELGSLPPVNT
Nature of the assay: G9a AlphaLISA enzymatic activity assay. The class given is biochemical. The conditions noted are these: negative log of IC50 in molar, 0.15 nM G9a, 15 uM S-adenosyl-methionine, 100 nM biotinylated histone 3 peptide (1-21). For orientation: Bead proximity is the source of the signal in Alpha formats.
As to `COc1cc2c(NC3CCCNC3)c3c(nc2cc1OCCCN(C)C)CCC3` (stereo not shown) [Example 73, N-{6-[3-(dimethylamino)propoxy]-7-methoxy-1H,2H,3H-cyclopenta[b]quinolin-9-yl}piperidin-3-amine], the 50% inhibitory concentration (IC50) (commonly the concentration at which inhibition is half-maximal) is 1.45 nM. To `COc1cc2c(NCC3CNC3)c3c(nc2cc1OCCCN1CC2CC(C2)C1)CCC3` [Example 74, 6-(3-{3-azabicyclo[3.1.1]heptan-3-yl}propoxy)-N-[(azetidin-3-yl)methyl]-7-methoxy-1H,2H,3H-cyclopenta[b]quinolin-9-amine] belongs 8.32 nM; to `CCNc1c2c(nc3cc(OCCCN4CC[C@@H](OC)C4)c(OC)cc13)CCC2` [Example 75, N-ethyl-7-methoxy-6-{3-[(3R)-3-methoxypyrrolidin-1-yl]propoxy}-1H,2H,3H-cyclopenta[b]quinolin-9-amine], 52.5 nM.

As for `COc1cc2c(NC3CCN(C(C)C)CC3)c3c(nc2cc1OCCCN1CC[C@@H](OC)C1)CCC3` [Example 76, N-(7-methoxy-6-{3-[(3R)-3-methoxypyrrolidin-1-yl]propoxy}-1H,2H,3H-cyclopenta[b]quinolin-9-yl)-1-(propan-2-yl)piperidin-4-amine], the 50% inhibitory concentration (IC50) is 6.46 nM.
